# Assay results from US7166456B2, “Microorganism for producing riboflavin and method for producing riboflavin using the same” (CJ Corp., priority 2002, dated 2007).
# How the values were obtained:
# Bacillus subtilis AS5 = test: Evaluation of resistance against thiaproline (growth on thiaproline-containing minimal medium); type: cell-based; design: key to growth of strain: +: growth; −: not growth; settings: 37° C., 5 days
# Description: (§1) The Bacillus subtilis AS5 as the parent strain was obtained from BIONOM-S, Ltd. (Obolensk, Moscow, Russia). The Bacillus subtilis AS5 was suspended in phosphate buffer at pH 7.0 or citrate buffer at pH 5.5 to have a cell density of 10^7 to 10^8 cells/ml. A mutation-inducing agent, N-methyl-N′-nitro-N-nitrosoguanidine was added to the suspension until its concentration was 10 to 50 μg/ml. The resultant mixture was incubated at room temperature or 30° C. for 30 to 60 minutes to induce mutation. Then, the mixture was washed three times with 0.85% of saline solution and diluted in an appropriate manner. The diluted solution was plated onto 1.8% agar-containing minimal media with various concentrations of thiaproline and cultured at 37° C. for 5 days to obtain colonies. In this case, the concentration of thiaproline ranged from 0 mg/l to 100 mg/l. The formed colonies were inoculated onto nutrient agar media and cultured at 37° C. for 24 hours. Then, the resultant nutrient cultures were inoculated onto fermentation media and cultured at 37° C. for 4 to 5 days. The highest riboflavin-producing strain was selected.
# In this example, in order to evaluate resistance to thiaproline, the Bacillus subtilis CJKB0001 (KCCM-10445) of Example 1 and the Bacillus subtilis AS5 as the parent strain were cultured in various concentrations of thiaproline-containing media. In detail, respective strains were inoculated onto thiaproline-containing media as shown in Table 1 and cultured at 37° C. for 5 days. In this case, the concentration of thiaproline ranged from 0 to 100 mg/l.
# [1] = system: Bacillus subtilis CJKB0001 (KCCM-10445); test: as above; type: cell-based; design: key: +: growth; −: not growth; settings: 37° C., 5 days
# Description: as §1
# In this example, in order to evaluate resistance to thiaproline, the Bacillus subtilis CJKB0001 (KCCM-10445) of Example 1 and the Bacillus subtilis AS5 as the parent strain were cultured in various concentrations of thiaproline-containing media. […]
compound,measurement,setting,value
O=C(O)[C@@H]1CSCN1 [thiaproline],growth of strain,Bacillus subtilis AS5; 40 mg/l thiaproline,+
same,growth of strain,Bacillus subtilis AS5; 50 mg/l thiaproline,−
same,growth of strain,Bacillus subtilis AS5; 70 mg/l thiaproline,−
same,growth of strain,Bacillus subtilis AS5; 100 mg/l thiaproline,−
same,thiaproline concentration at which the strain cannot grow,Bacillus subtilis AS5; thiaproline-containing medium,more than 40 mg/l
same,growth of strain,[1]; 70 mg/l thiaproline,+
same,growth of strain,[1]; 100 mg/l thiaproline,−
